Laboratory results published in ChEMBL document CHEMBL1147761, “Novel 1,3-dipropyl-8-(1-heteroarylmethyl-1H-pyrazol-4-yl)-xanthine derivatives as high affinity and selective A2B adenosine receptor antagonists” (Bioorg Med Chem Lett, 2006).

What was measured:
Adenosine receptor A1 = target: T1, Adenosine receptor A1 (Homo sapiens, UniProt P30542); experiment: Displacement of [3H]CPX from Adenosine A1 receptor expressed in CHO cells; assay type: cell-based
T1 sequence (P30542 whole entry): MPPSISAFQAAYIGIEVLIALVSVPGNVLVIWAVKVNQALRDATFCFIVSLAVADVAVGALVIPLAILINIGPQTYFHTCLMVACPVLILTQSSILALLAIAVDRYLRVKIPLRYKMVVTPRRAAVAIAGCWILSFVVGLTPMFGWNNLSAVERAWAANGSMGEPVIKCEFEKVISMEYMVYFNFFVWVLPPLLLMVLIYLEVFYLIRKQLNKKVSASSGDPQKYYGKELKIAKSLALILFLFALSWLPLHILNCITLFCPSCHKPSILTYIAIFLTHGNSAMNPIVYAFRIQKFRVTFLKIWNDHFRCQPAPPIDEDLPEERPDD

Adenosine receptor A2b = target: T2, Adenosine receptor A2b (Homo sapiens, UniProt P29275); experiment: Displacement of [3H]ZM-241385 from Adenosine A2B receptor expressed in HEK cells; assay type: cell-based, HEK293
T2 sequence (P29275 whole entry): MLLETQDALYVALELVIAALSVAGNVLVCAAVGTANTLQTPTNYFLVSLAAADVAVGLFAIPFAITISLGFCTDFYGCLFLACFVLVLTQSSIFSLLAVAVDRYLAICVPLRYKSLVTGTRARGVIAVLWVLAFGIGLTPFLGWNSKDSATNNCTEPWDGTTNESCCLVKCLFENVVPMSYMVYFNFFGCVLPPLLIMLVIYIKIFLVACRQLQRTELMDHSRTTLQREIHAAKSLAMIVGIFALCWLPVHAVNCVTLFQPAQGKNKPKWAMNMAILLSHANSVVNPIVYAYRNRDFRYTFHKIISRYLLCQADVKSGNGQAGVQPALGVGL

Adenosine receptor A3 = target: T3, Adenosine receptor A3 (Homo sapiens, UniProt P0DMS8); experiment: Displacement of [125I]AB-MECA from Adenosine A3 receptor expressed in CHO cells; assay type: cell-based
T3 sequence (P0DMS8 whole entry): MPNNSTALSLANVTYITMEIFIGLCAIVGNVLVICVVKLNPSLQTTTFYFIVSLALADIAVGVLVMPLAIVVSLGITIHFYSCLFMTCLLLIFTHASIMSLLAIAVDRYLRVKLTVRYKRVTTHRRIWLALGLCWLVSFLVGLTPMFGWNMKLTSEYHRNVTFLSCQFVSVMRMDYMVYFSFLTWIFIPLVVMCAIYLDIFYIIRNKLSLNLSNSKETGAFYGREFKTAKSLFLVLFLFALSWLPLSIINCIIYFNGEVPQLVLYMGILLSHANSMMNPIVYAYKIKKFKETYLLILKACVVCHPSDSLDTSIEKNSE

Adenosine receptor A2a = Adenosine receptor A2a (Homo sapiens, UniProt P29274); experiment: Displacement of [3H]ZM-241385 from Adenosine A2A receptor expressed in HEK cells; assay type: cell-based, HEK293
Adenosine receptor A2a, sequence (P29274 whole entry): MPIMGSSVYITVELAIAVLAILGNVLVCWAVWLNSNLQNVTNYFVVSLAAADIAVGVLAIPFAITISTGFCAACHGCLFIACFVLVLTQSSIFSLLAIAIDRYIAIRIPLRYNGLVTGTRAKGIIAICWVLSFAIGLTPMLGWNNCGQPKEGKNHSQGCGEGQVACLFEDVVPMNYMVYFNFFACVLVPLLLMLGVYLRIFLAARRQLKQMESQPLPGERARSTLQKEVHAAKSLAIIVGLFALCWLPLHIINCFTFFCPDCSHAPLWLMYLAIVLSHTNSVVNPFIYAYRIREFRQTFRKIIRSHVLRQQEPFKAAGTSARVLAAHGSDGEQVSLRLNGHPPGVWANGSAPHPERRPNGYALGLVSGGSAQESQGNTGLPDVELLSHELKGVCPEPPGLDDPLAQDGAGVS

[1] = target: Adenosine receptors; A1 & A2b (Homo sapiens) (UniProt P30542+P29275); experiment: Selectivity of adenosine A1 receptor over adenosine A2B receptor; assay type: protein assay
[2] = target: Adenosine A2 receptor (Homo sapiens) (UniProt P29275+P29274); experiment: Selectivity of adenosine A2A receptor over adenosine A2B receptor; assay type: protein assay
Adenosine A2 receptor (Homo sapiens), sequence (P29274 whole entry, looked up, one chain of several): as the sequence (P29274 whole entry) above

[3] = target: Adenosine receptors; A2b & A3 (Homo sapiens) (UniProt P29275+P0DMS8); experiment: Selectivity of adenosine A3 receptor over adenosine A2B receptor; assay type: protein assay

Row | SMILES | Ki (Adenosine receptor A1) [nM] | Ki (Adenosine receptor A2b) [nM] | Ki (Adenosine receptor A3) [nM] | Ki (Adenosine receptor A2a) [nM] | Ratio Ki [1] | Ratio Ki [2] | Ratio Ki [3]
1 | CCCn1c(=O)c2[nH]c(-c3cnn(Cc4nc(-c5ccc(C)cc5)no4)c3)nc2n(CCC)c1=O | 2600 | 54 | 8700 | 3000 |  |  | 
2 | CCCn1c(=O)c2[nH]c(-c3cnn(Cc4nc(-c5cccc(C)c5)no4)c3)nc2n(CCC)c1=O | 1400 | 128 | 970 | > 5000 |  |  | 
3 | CCCn1c(=O)c2nc(-c3cnn(Cc4nc(-c5ccc(C)cc5)no4)c3)[nH]c2n(CCC)c1=O |  |  |  |  | 48 | 55 | 160
4 | CCCn1c(=O)c2[nH]c(-c3cnn(Cc4noc(-c5cccc(C(F)(F)F)c5)n4)c3)nc2n(CCC)c1=O | > 6000 | 64 | 1800 | > 5000 |  |  | 
5 | CCCn1c(=O)c2nc(-c3cnn(Cc4cc(-c5ccc(OC)cc5)on4)c3)[nH]c2n(CCC)c1=O |  |  |  |  | 31 | > 79 | 48
6 | CCCn1c(=O)c2[nH]c(-c3cnn(Cc4cc(-c5ccc(C(F)(F)F)cc5)on4)c3)nc2n(CCC)c1=O | 2300 | 48 | 1200 | 1700 |  |  | 
7 | CCCn1c(=O)c2[nH]c(-c3cnn(Cc4nc(-c5ccc(C#N)cc5)no4)c3)nc2n(CCC)c1=O | 1300 | 18 | 950 | > 5000 |  |  | 
8 | CCCn1c(=O)c2nc(-c3cnn(Cc4nc(-c5ccc(C#N)cc5)no4)c3)[nH]c2n(CCC)c1=O |  |  |  |  | 70 | > 277 | 53
9 | CCCn1c(=O)c2[nH]c(-c3cnn(Cc4nc(-c5cccc(OC)c5)no4)c3)nc2n(CCC)c1=O | 2200 | 82 | 600 | > 5000 |  |  | 
10 | CCCn1c(=O)c2nc(-c3cnn(Cc4nc(-c5ccc(C(F)(F)F)cc5)no4)c3)[nH]c2n(CCC)c1=O |  |  |  |  | 60 | > 90 | 23
11 | CCCn1c(=O)c2[nH]c(-c3cnn(Cc4nc(-c5ccc(C(F)(F)F)cc5)no4)c3)nc2n(CCC)c1=O | 3300 | 55 | 1300 | > 5000 |  |  | 
12 | CCCn1c(=O)c2nc(-c3cnn(Cc4nc(-c5cccc(C)c5)no4)c3)[nH]c2n(CCC)c1=O |  |  |  |  | 11 | > 39 | 8
13 | CCCn1c(=O)c2[nH]c(-c3cnn(Cc4noc(-c5ccc(C#N)cc5)n4)c3)nc2n(CCC)c1=O | 570 | 14 | 640 | > 5000 |  |  | 
14 | CCCn1c(=O)c2[nH]c(-c3cnn(Cc4cc(-c5ccccc5Cl)on4)c3)nc2n(CCC)c1=O | > 6000 | 111 | 2300 | 2700 |  |  | 
15 | CCCn1c(=O)c2nc(-c3cnn(Cc4cc(-c5ccc(Cl)cc5)on4)c3)[nH]c2n(CCC)c1=O |  |  |  |  | 6 | 14 | 40
16 | CCCn1c(=O)c2[nH]c(-c3cnn(Cc4nc(-c5cccc(Cl)c5)no4)c3)nc2n(CCC)c1=O | 652 | 32 | 490 | > 5000 |  |  | 
17 | CCCn1c(=O)c2[nH]c(-c3cnn(Cc4cc(-c5ccc(OC)cc5)on4)c3)nc2n(CCC)c1=O | 2000 | 63 | 3000 | > 5000 |  |  | 
18 | CCCn1c(=O)c2nc(-c3cnn(Cc4cc(-c5ccc(C(F)(F)F)cc5)on4)c3)[nH]c2n(CCC)c1=O |  |  |  |  | 48 | 35 | 25
19 | CCCn1c(=O)c2[nH]c(-c3cnn(CC(=O)Nc4ccccc4Cl)c3)nc2n(CCC)c1=O | 102 | 22 | 1200 | 1500 |  |  | 
20 | CCCn1c(=O)c2nc(-c3cnn(CC(=O)Nc4ccccc4Cl)c3)[nH]c2n(CCC)c1=O |  |  |  |  | 5 | 68 | 54
21 | CCCn1c(=O)c2nc(-c3cnn(Cc4nc(-c5cccc(Cl)c5)no4)c3)[nH]c2n(CCC)c1=O |  |  |  |  | 20 | > 156 | 15
22 | CCCn1c(=O)c2[nH]c(-c3cnn(Cc4cc(-c5ccc(Cl)cc5)on4)c3)nc2n(CCC)c1=O | 540 | 82 | 3300 | 1200 |  |  | 

More lines, now with the values ahead:

Row | Ki (Adenosine receptor A1) [nM] | Ki (Adenosine receptor A2b) [nM] | Ki (Adenosine receptor A3) [nM] | Ki (Adenosine receptor A2a) [nM] | Ratio Ki [1] | Ratio Ki [2] | Ratio Ki [3] | SMILES
23 | 3900 | 123 | 2300 | > 5000 | 32 | > 40 | 19 | CCCn1c(=O)c2nc(-c3cnn(Cc4noc(-c5ccc(OC)cc5)n4)c3)[nH]c2n(CCC)c1=O
24 | 930 | 83 | > 8300 | 3400 | 11 | 40 | > 100 | CCCn1c(=O)c2nc(-c3cnn(Cc4noc(-c5ccccc5OC)n4)c3)[nH]c2n(CCC)c1=O
25 | 1900 | 82 | 410 | 1600 |  |  |  | CCCn1c(=O)c2[nH]c(-c3cnn(Cc4nc(-c5ccccc5OC)no4)c3)nc2n(CCC)c1=O
26 |  |  |  |  | > 93 | > 78 | 27 | CCCn1c(=O)c2nc(-c3cnn(Cc4noc(-c5cccc(C(F)(F)F)c5)n4)c3)[nH]c2n(CCC)c1=O
27 | 3300 | 195 | 4900 | > 5000 |  |  |  | CCCn1c(=O)c2[nH]c(-c3cnn(Cc4cc(-c5ccccc5OC)on4)c3)nc2n(CCC)c1=O
28 |  |  |  |  | 19 | > 50 | 6 | CCCn1c(=O)c2nc(-c3cnn(Cc4noc(-c5ccccc5C(F)(F)F)n4)c3)[nH]c2n(CCC)c1=O
29 |  |  |  |  | 16 | 65 | 9 | CCCn1c(=O)c2nc(-c3cnn(Cc4noc(-c5ccccc5Cl)n4)c3)[nH]c2n(CCC)c1=O
30 |  |  |  |  | 40 | > 357 | 45 | CCCn1c(=O)c2nc(-c3cnn(Cc4noc(-c5ccc(C#N)cc5)n4)c3)[nH]c2n(CCC)c1=O
31 |  |  |  |  | 23 | 19 | 5 | CCCn1c(=O)c2nc(-c3cnn(Cc4nc(-c5ccccc5OC)no4)c3)[nH]c2n(CCC)c1=O
32 |  |  |  |  | > 54 | 24 | 20 | CCCn1c(=O)c2nc(-c3cnn(Cc4cc(-c5ccccc5Cl)on4)c3)[nH]c2n(CCC)c1=O
33 | 630 | 38 | 330 | 2500 |  |  |  | CCCn1c(=O)c2[nH]c(-c3cnn(Cc4noc(-c5ccccc5Cl)n4)c3)nc2n(CCC)c1=O
34 | 1900 | 100 | 620 | > 5000 |  |  |  | CCCn1c(=O)c2[nH]c(-c3cnn(Cc4noc(-c5ccccc5C(F)(F)F)n4)c3)nc2n(CCC)c1=O
35 |  |  |  |  | 6 | > 37 | 15 | CCCn1c(=O)c2nc(-c3cnn(Cc4noc(-c5cccc(OC)c5)n4)c3)[nH]c2n(CCC)c1=O
36 |  |  |  |  | 26 | > 60 | 7 | CCCn1c(=O)c2nc(-c3cnn(Cc4nc(-c5cccc(OC)c5)no4)c3)[nH]c2n(CCC)c1=O
37 | 810 | 136 | 2000 | > 5000 |  |  |  | CCCn1c(=O)c2[nH]c(-c3cnn(Cc4noc(-c5cccc(OC)c5)n4)c3)nc2n(CCC)c1=O
38 |  |  |  |  | 16 | > 25 | 24 | CCCn1c(=O)c2nc(-c3cnn(Cc4cc(-c5ccccc5OC)on4)c3)[nH]c2n(CCC)c1=O
